Results from article PMC10035370, “Targeting Tumor Angiogenesis with the Selective VEGFR-3 Inhibitor EVT801 in Combination with Cancer Immunotherapy” (Cancer Research Communications, 2022).
Read-outs that look alike come from different tables or passages of the source.

Columns and labels:
4T1 tumors = test: 4T1 mammary carcinoma mouse model, with anti-PD-1; type: in vivo, mice
Method: The 4T1 mammary carcinoma mouse models were used as reported previously ([26]). Briefly, 1 × 10^5 4T1 cells were implanted into mammary fat pads of BALB/c mice. […] Tumors were measured two to three times weekly with calipers. The tumor volume (V) was calculated using the formula V = 0.52 × a^2 × b (a: smallest tumor diameter; b: largest tumor diameter). The tumors, lungs, and axillary lymph nodes were removed at day 21 for treatment with anti-PD-1, and day 28 for treatment with anti-CTLA-4. The tumors and the lungs were embedded in paraffin for histology studies. […] The metastatic scoring was determined as follows: (0) no metastasis; ([1]) 1 to 20 metastases < 50 μm; ([2]) between 21 and 50 metastases < 50 μm; ([3]) 1 or more metastases > […]; ([4]) 1 or more metastases > […].

[1] = Blood pressure in telemetered rat model of hypertension; type: in vivo; details: dose as high as 500 mg/kg, single oral administration
Method: Supplementary Figure 8. EVT801 and sorafenib show opposing effects on blood pressure in rats. (A) Monitoring of the blood pressure over 24 h after single oral administration of 100 mg/kg EVT801 or 500 mg/kg of EVT801, compared to animals treated with vehicle. (B) Monitoring of the blood pressure over 24 h after single oral administration of 10 mg/kg sorafenib, 30 mg/kg sorafenib or 100 mg/kg of sorafenib, compared to animals treated with vehicle.

VEGFR-3 = target: T1, VEGFR-3 (Mus musculus, UniProt P35917); test: Cellular VEGFR-3 autophosphorylation assay, mouse receptor; type: cell-based; details: read-out: IC50 in cellular assays, VEGFR-3 autophosphorylation, mouse receptor
T1 construct: expressed in transfected cells; host or cells: HEK293T (inferred from the general description of the cellular assay)
T1 sequence (P35917 25-1363): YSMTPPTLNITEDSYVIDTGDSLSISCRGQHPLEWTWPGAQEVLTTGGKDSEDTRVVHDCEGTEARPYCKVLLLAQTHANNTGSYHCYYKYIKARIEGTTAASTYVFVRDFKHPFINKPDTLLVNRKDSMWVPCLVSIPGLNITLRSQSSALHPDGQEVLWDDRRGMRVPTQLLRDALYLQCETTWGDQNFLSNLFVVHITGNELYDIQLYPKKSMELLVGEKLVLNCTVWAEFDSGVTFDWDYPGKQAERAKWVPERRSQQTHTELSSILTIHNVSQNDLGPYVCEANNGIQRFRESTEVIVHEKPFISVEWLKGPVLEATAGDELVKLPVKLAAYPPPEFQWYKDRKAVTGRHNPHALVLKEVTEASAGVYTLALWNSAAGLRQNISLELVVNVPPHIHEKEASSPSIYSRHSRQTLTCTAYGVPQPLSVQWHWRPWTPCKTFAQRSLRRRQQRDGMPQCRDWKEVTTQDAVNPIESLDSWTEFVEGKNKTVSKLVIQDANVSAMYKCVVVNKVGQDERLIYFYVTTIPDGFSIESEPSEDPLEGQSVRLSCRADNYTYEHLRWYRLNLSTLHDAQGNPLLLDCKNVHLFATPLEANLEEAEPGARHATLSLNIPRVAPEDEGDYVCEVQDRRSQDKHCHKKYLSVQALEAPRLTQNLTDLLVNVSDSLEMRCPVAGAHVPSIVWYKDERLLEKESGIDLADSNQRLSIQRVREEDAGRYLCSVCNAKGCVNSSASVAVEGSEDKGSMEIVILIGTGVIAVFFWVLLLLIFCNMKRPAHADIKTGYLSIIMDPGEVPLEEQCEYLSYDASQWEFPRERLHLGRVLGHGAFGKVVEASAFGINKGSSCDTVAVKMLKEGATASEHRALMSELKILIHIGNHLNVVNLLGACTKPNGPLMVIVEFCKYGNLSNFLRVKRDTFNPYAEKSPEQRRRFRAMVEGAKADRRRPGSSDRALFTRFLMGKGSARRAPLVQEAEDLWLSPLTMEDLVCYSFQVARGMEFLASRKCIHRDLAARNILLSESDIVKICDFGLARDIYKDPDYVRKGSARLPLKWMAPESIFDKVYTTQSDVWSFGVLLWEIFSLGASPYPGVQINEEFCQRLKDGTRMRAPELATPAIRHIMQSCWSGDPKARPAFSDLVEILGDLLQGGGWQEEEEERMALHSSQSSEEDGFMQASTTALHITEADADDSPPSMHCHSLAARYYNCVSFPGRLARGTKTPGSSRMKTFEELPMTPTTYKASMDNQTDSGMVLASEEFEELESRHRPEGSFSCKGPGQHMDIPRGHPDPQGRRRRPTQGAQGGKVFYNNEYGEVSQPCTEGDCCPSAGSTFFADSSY
Method: Transfection of HEK293T cells and Ba/F3 cells with VEGFR-1-Flag, VEGFR-2-Flag or VEGFR-3-Flag expression constructs was performed using Fugene-6 (Roche) as per manufacturer’s protocol. Briefly, Fugene-6 was pre-incubated with Opti-Mem (Gibco) before adding DNA. After 24 h, media was replaced with serum-free culture media containing 0.2 % BSA. On the next day, cells were incubated for 1 h in 1 mM orthovanadate, harvested, dissociated and distributed at 4 x 10^5 cells in 5 mL for HEK-VEGFR-1 and HEK-VEGFR-3, and 5 x 10^4 cells per 5 mL for HEK VEGFR-2 in the presence of EVT801 or SAR401849. After 30 min, the reaction was stopped by the addition of cold PBS supplemented with 1 mM orthovanadate. Cells were then lysed with 150 μl of RIPA buffer for 15 min at 4°C, then centrifuged for 10 min at 10,000 g. Supernatants (75 μl) were distributed in duplicate on 96 well plates that were precoated with the anti-flag, and left for 1 h at room temperature. After 3 washes, the anti-phosphotyrosine conjugated to the HRP was added and incubated for 1 h at room temperature. Wells were then washed 3 times with TBS buffer containing 0.5 % Tween-20 and 2 mM MgCl2. The reaction was stopped with 50 μL of 2 N H2SO4, and the signal was read with Envision at the wavelengths of 485 nm and 530 nm.

Rip1-Tag2 tumors = test: Rip1-Tag2 transgenic mouse model; type: in vivo, mice
Method: The Rip1-Tag2/transgenic mouse models were used as reported previously ([29]). Briefly, treatment of mice started at the age of 12 weeks. Mice were treated daily for 16 days, and volume of each tumor was measured and calculated as described for the 4T1 mammary carcinoma mouse model below. The tumor burden was calculated as the sum of individual tumor volumes for each mouse. For the survival study, daily treatment started at the age of 12 weeks, and mice were monitored daily to detect moribund mice for euthanasia. CD31-positive vessel density within the tumors were quantified by density index (1 vessel/mm^2) measured using the Definiens software. Individual density indices were plotted as the mean ± SD for each group. Statistical significance was assessed by Kruskall–Wallis followed by Dunnet multiple comparison test.

Pharmacokinetics in mice = type: in vivo; details: mouse; for half-life / Cmax / AUC(0-t): plasma; for AUC(0-t): read-out: AUC(0–24)
Method: Plasma samples and tumor homogenates were mixed with the precipitant solution (acetonitrile containing internal standard). The supernatant (180 µL) was transferred in a 96-well plate and 5 µL were injected. EVT801 and its main metabolite were quantified by LC-MS/MS following standard conditions.
Quality control (QC) samples and calibration samples were prepared daily by spiking mouse plasma and tumor homogenates with working solutions prepared from independent weighing. The calibration curve was calculated from calibration levels at 1, 2.5, 5, 10, 25, 50, 100, 200, 500, 1000 and 2000 ng/mL. A variation of ± 20 % versus the nominal concentrations was used as criteria for qualification of samples; at least 75 % of all standards needed to be within this window, and at least 6 concentration values within tis window were used for quantification. The concentrations for QC samples were 5, 50, 150, 450 and 1500 ng/mL. At least 66 % of all QC samples, and at least 50 % of QC samples at a given concentration were within the ± 20 % window. Quadratic regressions were applied, not forced through the origin, and weighted by 1/x (with R^2 > 0.98). The lower limit of quantification for both compounds was set to 1 ng/mL for plasma and to 3 ng/g for tumor samples.

CCn1c(N)c(-c2ncc[nH]2)c(=O)c2ccc(C#C[C@@](C)(O)COC)nc21 [EVT801]
intratumor infiltrated CD8+ cells (4T1 tumors; endpoint, not statistically significant): globally doubled | T/C ratio, tumor volume (4T1 tumors; orthotopic, 2 weeks, EVT801 30 mg/kg twice per day and/or anti-PD-1 twice per week): 43% | effect on blood pressure [1]: did not increase blood pressure | IC50 (VEGFR-3): 151 nM | T/C ratio, tumor volume (Rip1-Tag2 tumors; 30 mg/kg/day, 2 weeks): 63% | average number of tumors per pancreas (Rip1-Tag2 tumors; 30 mg/kg/day, 2 weeks): three | reduction in tumor volume (Rip1-Tag2 tumors; 30 mg/kg/day, 2 weeks): 37% | reduction of number of pancreatic tumors (Rip1-Tag2 tumors; 30 mg/kg/day, 2 weeks): 67% | T/C ratio, tumor volume (Rip1-Tag2 tumors; 100 mg/kg/day, 2 weeks): 16% | reduction of number of pancreatic tumors (Rip1-Tag2 tumors; 100 mg/kg/day, 2 weeks): 91% | overall survival of the mice (Rip1-Tag2 tumors; 30 and 100 mg/kg/day): dose-dependently increased | half-life (Pharmacokinetics in mice; Balb/c, 30 mg/kg, Balb/c mice, 30 mg/kg, read-out: T1/2 in plasma (converted)): 2.7 h | half-life (Pharmacokinetics in mice; Balb/c, 100 mg/kg, Balb/c mice, 100 mg/kg, read-out: T1/2 in plasma (converted)): 1.1 h | half-life (Pharmacokinetics in mice; Balb/c, 100 mg/kg, Balb/c with 4T1 tumor, 100 mg/kg for 2 weeks): 3.2 h | half-life (Pharmacokinetics in mice; SCID, 10 mg/kg, SCID mice with tumor, 10 mg/kg for 2 weeks, read-out: T1/2 in plasma (converted)): 0.9 h | half-life (Pharmacokinetics in mice; SCID, 30 mg/kg, SCID mice with tumor, 30 mg/kg for 2 weeks, read-out: T1/2 in plasma (converted)): 1.6 h | Cmax (Pharmacokinetics in mice; oral, 100 mg/kg/day): 8940 ng/mL | AUC(0-t) (Pharmacokinetics in mice; oral, 100 mg/kg/day): 22000 ng·h/mL | Cmax (Pharmacokinetics in mice; po, 30 mg/kg twice per day): 8390 ng/mL | AUC(0-t) (Pharmacokinetics in mice; po, 30 mg/kg twice per day): 28000 ng·h/mL | Kp (Pharmacokinetics in mice; Balb/c with 4T1 tumor, 100 mg/kg for 2 weeks, read-out: Tissue to plasma (AUC)): 0.88
